Laboratory results as given in patent publication US20210009630A1, “CYCLIC DINUCLEOTIDES AS STING AGONISTS” (Janssen Biotech, Inc., priority 2017, published 2021).

Legend:
[1] = system: THP1-Blue ISG cells (IFN-β secretion); test: Human interferon-β induction assay; assay type: cell-based; conditions: total cumulative IFN-β induction over the dose range tested (0.78 to 50 uM) in THP-1 cells after a 24 hour exposure
Experimental: THP1-Blue ISG cells are used to measure the secretion of IFN-β into the culture supernatant following STING pathway activation. To run the assay, anti-IFN-β capture antibodies were coated on […] well MultiArray plates (Mesoscale Discovery). After a one hour incubation, plates were washed and 50 μL supernatant from the STING human cell reporter assay plates or IFN-β standards were mixed with 20 μL Sulfotag-conjugated detection antibody in the coated plates. Plates were incubated, shaking for 2 h, washed, and read buffer was applied. Electrochemiluminescence was measured on the SectorImager.

[2] = system: human STING pathway (THP1-ISG cells); test: STING human cell reporter assay; assay type: cell-based; conditions: Homo sapiens, IRF-inducible SEAP reporter, 24 h, means of at least three values
Experimental: Agonism of the human STING pathway is assessed in THP1-ISG cells (Invivogen, cat #thp-isg) derived from human THP1 monocyte cell line by stable integration of an interferon regulatory factor (IRF)-inducible SEAP reporter construct. THP1-Blue ISG cells express a secreted embryonic alkaline phosphatase (SEAP) reporter gene under the control of an ISG54 minimal promoter in conjunction with five interferon (IFN)-stimulated response elements. As a result, THP1-Blue ISG cells allow the monitoring of IRF activation by determining the activity of SEAP. The levels of IRF-induced SEAP in the cell culture supernatant are readily assessed with alkaline phosphatase detection medium, a SEAP detection reagent. These cells are resistant to Zeocin. 2′3′cGAMP was used as a positive control in this assay. To run the assay, 60,000 cells were dispensed in 30 μL/well of a white, opaque bottom tissue culture treated 384-well plate.
Test compounds were added in a volume of 10 μL (1% DMSO final concentration). Compounds are initially prepared in 100% DMSO, spotted on an compound dilution plate and then diluted in media prior to transfer. The assay was incubated for 24 h at 37° C., 5% CO2 then plates were centrifuged at 1200 rpm (120×g) for 5 min. After final incubation, 90 μL of alkaline phosphatase detection medium-substrate was added to each well of a new 384-well clear plate and 10 μL of the cell supernatant was transferred from the assay plate to the new alkaline phosphatase detection medium-plate using a Biomek FX and mixed 4 times. Plates were incubated at RT for 20 min then absorbance at 655 nm was determined on the Tecan Safire2.

[3] = system: CT26 colon carcinoma tumor; test: STING in vivo activity, mouse CT26 tumor model; conditions: 0.05 mg intratumorally every three days, three doses, 8 mice per group; for In vivo activity (% TGI): CT26 tumors in Balb/c mice
Experimental: For all studies, female Balb/c mice were obtained from Charles River Labs (Wilmington, Mass.) and used when they were 6-8 weeks of age and weighed approximately 20 g. All animals were allowed to acclimate and recover from any shipping-related stress for a minimum of 5 days prior to experimental use. Reverse osmosis chlorinated water and irradiated food (Laboratory Autoclavable Rodent Diet 5010, Lab Diet) were provided ad libitum, and the animals were maintained on a 12 h light and dark cycle. Cages and bedding were autoclaved before use and changed weekly. All experiments were carried out in accordance with The Guide for the Care and Use of Laboratory Animals and were approved by the Institutional Animal Care and Use Committee of Janssen R & D, Spring House, Pa. Each experimental group contained 8 mice. In vivo efficacy in a mouse CT26 tumor model was determined by implanting 500,000 CT26 colon carcinoma tumor cells subcutaneously into Balb/c mice and allowing tumors to establish to 100-300 mm^3. Compounds were injected intratumorally formulated in phosphate buffered saline in a volume of 0.1 mL Per injection. Mice were administered 0.05 mg every three days for a total of three doses. Efficacy was measured as the percent tumor growth inhibition (TGI) calculated by the reduction in size of the Treated tumor volume (T) over the Control tumor volume (C) according to the following formula. ((C−T)/(C))*100 when all control animals were still on study. Cures were defined as the number of animals with no measurable tumor detected 10 tumor volume doubling times (TVDT) after the last dose was administered.

[4] = biological target: human STING (biotinylated STING protein, residues 139-379 of Q86WV6, H232R) (Homo sapiens, UniProt Q86WV6, H232R); test: STING SPA binding assay
Experimental: The HIS tag is cleaved after purification and prior to biotinylation.
Test compounds (80 nL) were added with an acoustic dispenser (EDC Biosystems) in 100% DMSO for a final assay concentration of 1% DMSO. Plates were centrifuged for 1 min and incubated for 60 min at room temperature. […] Plates were dark adapted for 2 h and read on a ViewLux (Perkin Elmer) for 12 min per plate.

[5] = biological target: T1, human STING (E. coli produced truncated STING protein) (Homo sapiens, UniProt Q86WV6, H232R); test: STING SPR binding assay; conditions: steady state affinity, 1:1 binding model, 25° C.
T1 construct: contains residues 139-379 of Q86WV6 with an R at position 232 (H232R); HIS tag (N, cleaved yes); made in house; host or cells: E. coli
Experimental: Compounds were analyzed on an S200 biacore SPR instrument (GE Healthcare). E. coli produced truncated STING protein was immobilized on a series S streptavidin chip via biotin capture (GE Healthcare #BR100531) with. […] Steady state affinity and kinetic evaluations were carried out using 1:1 binding model (STING was treated as a dimer). Run parameters were as follows: 60 sec on, 300 sec off for the IFM compounds, cyclic-di-GMP (60 sec on/60 sec off), thiol isomer 1 (60 sec on/300 sec off) and cGAMP (60 sec on/1200 sec off) with a flow rate of 50 μL/min and data collection at 40 Hz at 25° C.

Sequence of human STING (biotinylated STING protein, residues 139-379 of Q86WV6, H232R) (Q86WV6 139-379 H232R, one chain of several): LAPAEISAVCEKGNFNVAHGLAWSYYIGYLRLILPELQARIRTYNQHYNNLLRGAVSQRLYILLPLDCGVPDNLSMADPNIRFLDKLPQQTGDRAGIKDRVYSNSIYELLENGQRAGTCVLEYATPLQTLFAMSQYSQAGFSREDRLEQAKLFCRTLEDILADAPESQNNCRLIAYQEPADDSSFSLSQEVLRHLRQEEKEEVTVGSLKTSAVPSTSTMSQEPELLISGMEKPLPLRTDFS
T1 sequence (Q86WV6 139-379 H232R): as the sequence (Q86WV6 139-379 H232R, one chain of several) above

Q: CO[C@H]1[C@H]2OS(=O)(=O)NC[C@H]3O[C@@H](n4cnc5c(N)ncnc54)[C@H](F)[C@@H]3OP(=O)(O)OC[C@H]1O[C@H]2n1cnc2c(=O)[nH]c(N)nc21 [Compound 1] was tested. Which “human IFN-β (ranking value)” value [1] did it give?
A: 7930 pg/mL

Q: And the EC50 [2]?
A: 0.077 µM

Q: What about the “In vivo activity (% TGI)” value [3] of the same compound?
A: 108.9%

Q: And the “In vivo activity (cures)” value ([3]; number of animals with no measurable tumor 10 tumor volume doubling times after the last dose)?
A: 6

Q: And the IC50 [4]?
A: 0.0046 µM

Q: And the Kd [5]?
A: 0.0012 µM

Q: With CO[C@H]1[C@H]2OP(=O)(O)OC[C@@]34CO[C@@H]([C@H](n5cnc6c(N)ncnc65)O3)[C@@H]4OS(=O)(=O)NC[C@H]1O[C@H]2n1cnc2c(=O)[nH]c(N)nc21 [Compound 25] as the compound, how does the “human IFN-β (ranking value)” value [1] read?
A: 6595 pg/mL

Q: And the EC50 [2]?
A: 0.1 µM

Q: What about the “In vivo activity (% TGI)” value [3] of the same compound?
A: 88.9%

Q: What about the IC50 [4] of the same compound?
A: 29.2 µM

Q: And the Kd [5]?
A: 3.48 µM
